O.O=C1NC(=O)C(=O)C(=O)N1
solubility (mole fraction)
Details | 293.15 K | 298.15 K | 303.15 K | 308.15 K | 313.15 K | 318.15 K | 323.15 K
in THF | 0.046 | 0.0549 | 0.0638 | 0.0739 | 0.084 | 0.0954 | 0.107
in acetone | 0.0128 | 0.0132 | 0.0136 | 0.014 | 0.0143 | 0.0146 | 0.015
in ethanol | 0.0856 | 0.0962 | 0.107 | 0.119 | 0.131 | 0.143 | 0.155
in ethylene glycol | 0.0113 | 0.0143 | 0.0172 | 0.0206 | 0.024 | 0.0283 | 0.0327
in methanol | 0.105 | 0.117 | 0.129 | 0.142 | 0.155 | 0.168 | 0.181
in water | 0.0377 | 0.0403 | 0.0429 | 0.0456 | 0.0482 | 0.051 | 0.0539
